Experimental data from the PolyMetriX glass transition set.
± gives the standard deviation of the reports.

Row | SMILES | glass transition temperature [°C]
1 | *CC(*)(C)C(=O)Oc1ccc(C(=O)Oc2ccc(Oc3ccccc3)cc2)cc1 (repeat unit) | 74.00
2 | *CC(*)C1CCCCC1 (repeat unit) [poly(vinylcyclohexane)] | 104.78 ± 28
3 | *c1ccc(Sc2ccc(Sc3ccc(Sc4ccc(N5C(=O)c6ccc(Sc7ccc(Sc8ccc(Sc9ccc%10c(c9)C(=O)N(*)C%10=O)cc8)cc7)cc6C5=O)cc4)cc3)cc2)cc1 (repeat unit) | 176.5
4 | *c1ccc(NC(=O)c2cccc(C(=O)Nc3ccc(-n4c(=O)c5cc6c(=O)n(*)c(=O)c6cc5c4=O)cc3)c2)cc1 (repeat unit) | 296.00
5 | *CCc1cc(Cl)c(*)c(Cl)c1 (repeat unit) | 110.00
6 | *CC(*)c1ccc(Oc2ccccc2)cc1 (repeat unit) | 85.00
7 | *c1ccc2c(c1)C(=O)N(c1ccc(Oc3ccc(S(=O)(=O)c4ccc(Oc5ccc(N6C(=O)c7ccc(C(*)(C(F)(F)F)C(F)(F)F)cc7C6=O)cc5)cc4)cc3)cc1)C2=O (repeat unit) | 276.50
8 | *Oc1ccc(/N=C/CCC/C=N/c2ccc(OC(=O)Nc3ccc(Cc4ccc(NC(*)=O)cc4)cc3)cc2)cc1 (repeat unit) | 76.00
9 | *c1ccc(Oc2ccc(N3C(=O)c4cccc(Oc5ccc(-c6ccc(Oc7cccc8c7C(=O)N(*)C8=O)cc6)cc5)c4C3=O)cc2)cc1 (repeat unit) | 277.00
10 | *c1ccc(Oc2ccc(-n3c(=O)c4c(Oc5ccc(OCCCCCCCC)cc5)c5c(=O)n(*)c(=O)c5c(Oc5ccc(OCCCCCCCC)cc5)c4c3=O)cc2)cc1 (repeat unit) | 234.50
11 | *Oc1c(C)cc(-c2cc(C)c(Oc3ccc(C(=O)c4ccc5cc(C(=O)c6ccc(*)cc6)ccc5c4)cc3)c(C)c2)cc1C (repeat unit) | 270.00
12 | *Oc1ccc(S(=O)(=O)c2ccc(Oc3ccc(C(=O)c4ccc(*)cc4)cc3)cc2)cc1 (repeat unit) | 205.00
13 | *Oc1ccc(CCNC(=O)c2cccc(C(=O)NCCc3ccc(OC(=O)c4cccc(C(*)=O)c4)cc3)c2)cc1 (repeat unit) | 147.00
14 | *c1c(C)cc(C(c2cc(C)c(N3C(=O)c4ccc(-c5ccc6c(c5)C(=O)N(*)C6=O)cc4C3=O)c(C)c2)c2cccc3ccccc23)cc1C (repeat unit) | 326.00
15 | *O[Si](*)(C)OCCOCCOCCOC (repeat unit) | -120.10
16 | *c1ccc2c(c1)C(=O)N(c1ccc(N3C(=O)c4ccc(-c5c(-c6ccccc6)c(-c6ccccc6)c(-c6ccc(Oc7ccc(-c8c(-c9ccccc9)c(-c9ccccc9)c(*)c(-c9ccccc9)c8-c8ccccc8)cc7)cc6)c(-c6ccccc6)c5-c5ccccc5)cc4C3=O)cc1)C2=O (repeat unit) | 353.00
17 | *CC(O)CN(C)S(=O)(=O)c1cccc(S(=O)(=O)N(C)CC(O)COc2ccc(Sc3ccc(O*)cc3)cc2)c1 (repeat unit) | 90.00
18 | *CCCCCCNC(=O)CCCCC(=O)NCC(=O)N* (repeat unit) | 53.40
19 | *CC(*)c1c(C)cc(C)cc1C (repeat unit) | 126.00
20 | *CCOCCOc1ccc(/C=C(\C)c2ccc(O*)cc2)cc1 (repeat unit) | 39.00
21 | *C(*)(F)Cl (repeat unit) | 77.00
22 | *c1ccccc1CCc1ccc(N2C(=O)C(=O)N(c3ccc(C)c(N4C(=O)C(=O)N(*)C4=O)c3)C2=O)cc1 (repeat unit) | 255.00
23 | *Oc1cc(Oc2ccc(C(C)(C)c3ccc(*)cc3)cc2)cc([N+](=O)[O-])c1 (repeat unit) | 150.00

Row | SMILES | glass transition temperature [°C]
24 | *c1ccc(Cc2ccc(N3C(=O)c4ccc(Oc5ccc(Oc6ccc7c(c6)C(=O)N(*)C7=O)cc5)cc4C3=O)c(OC)c2)cc1OC (repeat unit) | 269.00
25 | *OC(COC(=O)NCCCCCCNC(*)=O)c1ccco1 (repeat unit) | 17.00
26 | *Oc1ccc(CC(NC(=O)CCc2ccc(OC(=O)COCCOCC(*)=O)cc2)C(=O)OCCCCCCCC)cc1 (repeat unit) | 16.00
27 | *CC(*)(C)C(=O)OCCN(CC)c1ccc(/N=N/c2ccc(OC)cc2)c(C)c1 (repeat unit) | 95.00
28 | *O[Si](*)(C)CCCCCCCCCCCOc1ccc(-c2ccc(C(=O)Oc3ccc(C(=O)OC(C)C(=O)OC(C)C(=O)OCC(C)CC)cc3)cc2)cc1 (repeat unit) | 20.00
29 | *Oc1ccc(C2(c3ccc(OC(=O)CCCC(*)=O)cc3)c3ccccc3-c3ccccc32)cc1 (repeat unit) | 207.00
30 | *c1ccc(C(c2ccc(OCCCC)cc2)c2ccc(N(*)c3ccc(C)cc3)cc2)cc1 (repeat unit) | 170.00
31 | *c1ccc(-c2nc3ccc(S(=O)(=O)c4ccc5nc(*)c(-c6ccccc6)nc5c4)cc3nc2-c2ccccc2)cc1 (repeat unit) | 345.00
32 | *c1ccc2oc(-c3ccc(Oc4ccc(C(c5ccc(Oc6ccc(-c7nc8cc(C(*)(C(F)(F)F)C(F)(F)F)ccc8o7)cc6)cc5)(C(F)(F)F)C(F)(F)F)cc4)cc3)nc2c1 (repeat unit) | 255.00
33 | *O[Si](*)(C)CCCCCCCCCCCOc1ccc(/C=C/c2ccc(OC)cc2)cc1 (repeat unit) | 55.00
34 | *CCCCSSCCCCOCO* (repeat unit) | -76.00
35 | *Oc1ccc(Oc2ccc(C(=O)c3ccc(*)cc3)cc2)cc1 (repeat unit) | 146 ± 1.3
36 | *c1ccc(Oc2ccc(-c3ccc(Oc4ccc(N5C(=O)c6ccc(Oc7c(C)cc(C(C)(C)c8cc(C)c(Oc9ccc%10c(c9)C(=O)N(*)C%10=O)c(C)c8)cc7C)cc6C5=O)cc4)cc3C)c(C)c2)cc1 (repeat unit) | 257.00
37 | *c1ccc(Oc2ccc(-c3ccc(Oc4ccc(N5C(=O)c6ccc(Oc7ccc(Oc8ccc(Oc9ccc%10c(c9)C(=O)N(*)C%10=O)cc8)cc7)cc6C5=O)cc4)cc3)cc2)cc1 (repeat unit) | 211.00
38 | *C1C(=O)N(C(C)(C)C)C(=O)C1* (repeat unit) | 195.00
39 | *Nc1cc(NC(=O)NC2CCC(CC3CCC(NC(*)=O)CC3)CC2)cc(C(=O)Nc2cccc3c2C(=O)c2ccccc2C3=O)c1 (repeat unit) | 156.00
40 | *Oc1ccc(C(C)(c2ccccc2)c2ccc(OC(*)=O)cc2)cc1 (repeat unit) | 179.00
41 | *CC(*)c1ccc(C(=O)c2ccc(OC)cc2)cc1 (repeat unit) | 103.00
42 | *CC(*)(C)C(=O)OCCN(CC)c1ccc([N+](=O)[O-])cc1 (repeat unit) | 98.00
43 | *CC(*)(C)C(=O)OCCN(CC)c1ccccc1 (repeat unit) | 37.50
44 | *CC(C)(C)COC(=O)NC(=O)c1cccc(C(=O)NC(=O)O*)c1 (repeat unit) | 66.00
45 | *CC[Si](C)(C)O[Si]1(*)O[Si](C)(C)O[Si](C)(C)O1 (repeat unit) | -64.00

Other lines, results leading:

Row | glass transition temperature [°C] | SMILES
46 | 215.00 | *C(=O)Nc1ccccc1NC(=O)c1ccc(N2C(=O)c3ccc(*)cc3C2=O)cc1 (repeat unit)
47 | 100.50 | *C(=O)OCCCCOC(=O)c1ccc(N2C(=O)c3ccc(*)cc3C2=O)cc1 (repeat unit)
48 | 52.00 | *CCCCCCCCCCOC(=O)c1ccc(-c2ccc(C(=O)O*)cc2)cc1 (repeat unit)
49 | 250.00 | *c1cc(N2C(=O)c3ccc(Oc4cccc5c(Oc6ccc7c(c6)C(=O)N(*)C7=O)cccc45)cc3C2=O)cc(C(F)(F)F)c1 (repeat unit)
50 | 61.00 | *CCCCCOc1cccc(C(=O)OC(=O)c2cccc(O*)c2)c1 (repeat unit)
51 | 15.00 | *c1cccc(OCCCCCCCCCCCOC(=O)c2cccc(C(=O)OCCCCCCCCCCCOc3cccc(-c4nnc(*)s4)c3)c2)c1 (repeat unit)
52 | 314.00 | *C(=O)c1ccc2c(c1)C(=O)N(c1cc(C(=O)O)cc(N3C(=O)c4ccc(*)cc4C3=O)c1)C2=O (repeat unit)
53 | 86.00 | *CCCCCCCCCCCCN1C(=O)c2ccc(-c3ccc(-c4ccc5c(c4)C(=O)N(*)C5=O)cc3)cc2C1=O (repeat unit)
54 | 98.00 | *c1cc(Br)c(-c2c(Br)cc(N3C(=O)c4ccc(-c5ccc6c(c5)C(=O)N(*)C6=O)cc4C3=O)cc2C(=O)OCCCCCCCCCCCCCC)c(C(=O)OCCCCCCCCCCCCCC)c1 (repeat unit)
55 | 229.00 | *C(=O)c1ccc(Oc2ccc(-c3ccc(Oc4ccc(C(=O)c5ccc6c(c5)C(=O)N(c5ccc(N7C(=O)c8ccc(*)cc8C7=O)cc5)C6=O)cc4)cc3)cc2)cc1 (repeat unit)
56 | 66.00 | *CC(*)c1ccc(C(=O)OCCCCCC)cc1 (repeat unit)
57 | 281.00 | *c1ccc(Oc2ccc(N3C(=O)c4ccc(S(=O)(=O)c5ccc6c(c5)C(=O)N(*)C6=O)cc4C3=O)cc2Br)c(Br)c1 (repeat unit)
58 | 70.00 | *CCCOCCCCOCCCN1C(=O)c2ccc(C(=O)Oc3ccc(-c4ccc(OC(=O)c5ccc6c(c5)C(=O)N(*)C6=O)cc4)cc3)cc2C1=O (repeat unit)
59 | 178.00 | *c1cccc(CCCOc2cccc(N3C(=O)c4cccc(-c5ccc6c(c5)C(=O)N(*)C6=O)c4C3=O)c2)c1 (repeat unit)
60 | 42.00 | *Oc1ccc(CC(NC(=O)Cc2ccc(OC(=O)CCCC(*)=O)cc2)C(=O)OCCCCCC)cc1 (repeat unit)
61 | 27.00 | *Oc1cc(OC(=O)c2ccc(C)cc2)c(OC(=O)CCCCCCCCCCCCCCC(*)=O)cc1OC(=O)c1ccc(C)cc1 (repeat unit)
62 | 278.00 ± 14 | *c1ccc(Oc2ccc(Oc3ccc(N4C(=O)c5ccc(-c6ccc7c(c6)C(=O)N(*)C7=O)cc5C4=O)cc3)cc2)cc1 (repeat unit)
63 | 275.00 | *Nc1ccc(NC(=O)c2ccc(C(=O)c3ccc(C(*)=O)c(C(=O)OCC)c3)cc2C(=O)OCC)cc1 (repeat unit)
64 | 216.70 | *Oc1ccc(C(C)(C)c2ccc(Oc3ccc4c(c3)C(=O)N(N3C(=O)c5ccc(*)cc5C3=O)C4=O)cc2)cc1 (repeat unit)
